Measured values taken from patent US11845730B2, “1,3-substituted cyclobutyl derivatives and uses thereof” (Novartis AG, priority 2021, dated 2023).
Where a name gives a salt, the structure may show the parent alone.

The molecules below were run against human TRPV1 (Homo sapiens (Human), UniProt Q8NER1). Details: read-out: IC50 (μM), antagonist effect against human TRPV1; CHO cells expressing human TrpV1; stimulated with 2.5 μM NADA (EC80); mean of at least three independent experiments.
Sequence of human TRPV1 (Q8NER1 whole entry): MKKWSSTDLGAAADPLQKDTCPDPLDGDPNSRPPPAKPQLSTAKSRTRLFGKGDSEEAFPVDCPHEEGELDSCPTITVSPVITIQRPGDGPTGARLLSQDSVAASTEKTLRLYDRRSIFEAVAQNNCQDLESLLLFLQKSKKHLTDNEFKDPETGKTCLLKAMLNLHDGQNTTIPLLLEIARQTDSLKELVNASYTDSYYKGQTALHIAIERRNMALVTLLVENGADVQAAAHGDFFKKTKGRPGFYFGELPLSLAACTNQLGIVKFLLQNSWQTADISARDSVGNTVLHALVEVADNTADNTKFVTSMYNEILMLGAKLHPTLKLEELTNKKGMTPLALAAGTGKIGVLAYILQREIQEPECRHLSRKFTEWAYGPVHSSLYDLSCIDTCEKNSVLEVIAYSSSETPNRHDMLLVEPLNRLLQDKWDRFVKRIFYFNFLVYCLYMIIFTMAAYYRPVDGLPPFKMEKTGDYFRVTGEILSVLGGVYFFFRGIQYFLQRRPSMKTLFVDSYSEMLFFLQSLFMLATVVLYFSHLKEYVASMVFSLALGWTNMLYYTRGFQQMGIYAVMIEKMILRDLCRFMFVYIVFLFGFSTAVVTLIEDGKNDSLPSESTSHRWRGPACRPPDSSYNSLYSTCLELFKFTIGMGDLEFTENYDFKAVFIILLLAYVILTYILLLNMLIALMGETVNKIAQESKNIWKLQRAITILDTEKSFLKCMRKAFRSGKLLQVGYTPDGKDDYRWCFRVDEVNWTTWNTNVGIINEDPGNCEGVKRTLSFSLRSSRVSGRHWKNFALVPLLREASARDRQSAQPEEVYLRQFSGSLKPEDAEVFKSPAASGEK
Description: Chinese Hamster Ovary (CHO) cells transfected to express human TrpV1 receptor (which are herein referred to as CHO-huTrpV1 cells), were grown in F-12 Ham's Nutrient Mixture media (HyClone SH30026.01) supplemented with 10% Fetal Bovine Serum (Invitrogen #26140-079), 1% Antibiotic/antimycotic (Invitrogen #15240-062) and 500 ug/mL geneticin (ThermoFisher scientific #1031035). Cells were grown in T-75 flasks at 37° C. incubator with 5% CO2. The cells were passaged twice a week at a ratio of 1:10 to 1:20 to maintain steady growth. For experimentation, cells were harvested at approximately 80% confluency and plated onto 384 well black cell culture plates (cat #781091, Greinier Bio-One Inc.) at 15,000 cells per well in 20 μl media and grown overnight.
The loading dye was prepared following instruction of Calcium 6 assay kit (Molecular Probes, #R8190): 10 ml buffer from bottle B was added to 1 vial of bottle A (adapted to room temperature from −20° C.) and mixed well, then 2.5 mM of fresh prepared probenecid, was added and mixed well. 20 μl/well of loading dye was added on top of the cells, and incubated at 37° C. for 1 hour 30 min.
Assay buffer preparation: 1×HBSS, 2 mM HEPES, 0.1% BSA plus 2.5 mM freshly prepared probenecid (Invitrogen, #P36400). 25 μl/well assay buffer in 384 well clear plate (cat #782281, Greiner Bio-one) was dispensed with buffer distributor (Multidrop ComB1 from Thermo Scientific). The compounds were in 384 Echo plate (cat #LPL0200, Labcyte) and the starting concentration of compound was 10 mM, then 1 to 3 serial dilution in 100% DMSO, 8 ul/well). 125 nl compounds was transferred to the 384 well plate containing 25 μl/well buffer with Echo® 555 Liquid Handler (Labcyte), such that the compound concentration was 5 fold of final concentration. The plate was shook slowly at 40 rpm/min for 10 min to mix. 10 μl of 5 fold compound in the buffer was transferred to the cell plate (containing 20 μl cells and 20 μl dye) using Vertical Pipetting Station 384ST (Agilent Technologies). Six fold of final concentration of NADA (N-arachidonyl dopamine, cat #A8848, Sigma) in the assay buffer was prepared and 30 μl/well was distributed in 384 well clear plate.
After compounds were added to the cell plate with loading dye, within 10-15 minutes, cell plate and plate containing NADA was placed into the FLIPR (Fluorescent Imaging Plate Reader) instrument (Tetra System, Molecular device). The TRPV1 receptor was stimulated by application of 10 μl per well of NADA. For testing the effect of compounds for possible antagonism, 2.5 μM NADA was used at the EC80 concentration.
For determination of antagonist IC50 values (concentration of antagonist that inhibits response to NADA by 50%), at least 10 antagonist concentration were measured in triplicate. The response in the presence of the antagonist was calculated as a percentage of the control response to NADA and was plotted against the concentration of the antagonist. The IC50 was estimated by non-linear regression analysis to sigmoidal-logistic curves by HELIOS (PROD 2) system. These values were averaged (means and standard error of the mean) for at least three independent experiments.

Going from `OCC(O)c1cc(F)c(CN[C@H]2C[C@H](Oc3ccc(F)c(C(F)(F)F)c3)C2)c2ccncc12` (mixture of isomers) [Example 7 racemic, 1-(6-fluoro-5-((((1r,3r)-3-(4-fluoro-3-(trifluoromethyl)phenoxy)cyclobutyl)amino)methyl)isoquinolin-8-yl)ethane-1,2-diol] to `OC[C@@H](O)c1cc(F)c(CN[C@H]2C[C@H](Oc3ccc(F)c(C(F)(F)F)c3)C2)c2ccncc12` (single isomer, unassigned; peak 1) [Example 7 peak 1], the IC50 falls from 10.4 nM to 0.62 nM (17-fold).

Compared with `OCCC(O)c1cc(F)c(CNC2CC(Oc3ccc(F)c(C(F)(F)F)c3)C2)c2ccncc12` (racemic) [Example 9 racemic, 1-(6-fluoro-5-((((1r,3r)-3-(4-fluoro-3-(trifluoromethyl)phenoxy)cyclobutyl)amino)methyl)isoquinolin-8-yl)propane-1,3-diol], `OCC[C@H](O)c1cc(F)c(CN[C@H]2C[C@H](Oc3ccc(F)c(C(F)(F)F)c3)C2)c2ccncc12` (single isomer, unassigned; peak 1) [Example 9 peak 1] is 6.4-fold lower in IC50: 0.58 nM for the first, 0.09 nM for the second. The second is the more potent here.

First: Nc1cc2c(CN[C@H]3C[C@H](Oc4ccc(F)c(C(F)(F)F)c4)C3)c(F)cc([C@@H](O)CO)c2cn1 (single isomer, unassigned; peak 1) [Example 21 peak 1]
Second: Nc1cc2c(CN[C@H]3C[C@H](Oc4ccc(F)c(C(F)(F)F)c4)C3)c(F)cc([C@H](O)CO)c2cn1 (single isomer, unassigned; peak 2) [Example 21 peak 2]
The IC50 of the first is 2.6-fold lower: 4.42 nM for the first, 11.3 nM for the second. The first is the more potent here.

Compared with `OC[C@H](O)c1cc(F)c(CN[C@H]2C[C@H](Oc3ccc(F)c(C(F)(F)F)c3)C2)c2ccncc12` (single isomer, unassigned; peak 2) [Example 7 peak 2], `OCC[C@@H](O)c1cc(F)c(CN[C@H]2C[C@H](Oc3ccc(F)c(C(F)(F)F)c3)C2)c2ccncc12` (single isomer, unassigned; peak 2) [Example 9 peak 2] is 2.2-fold higher in IC50: 6.3 nM for the first, 13.7 nM for the second.

Going from `Cc1ccc2cnccc2c1CN[C@H]1C[C@H](Oc2ccc(F)c(C(F)(F)F)c2)C1` [Example 1, (1r,3r)-3-(4-fluoro-3-(trifluoromethyl)phenoxy)-N-((6-methylisoquinolin-5-yl)methyl)cyclobutan-1-amine, HCl] to `Fc1ccc(O[C@H]2C[C@H](NCc3c(F)ccc4cnccc34)C2)cc1C(F)(F)F` [Example 3, (1r,3r)-3-(4-fluoro-3-(trifluoromethyl)phenoxy)-N-((6-fluoroisoquinolin-5-yl)methyl)cyclobutan-1-amine, HCl], the IC50 falls from 20.8 nM to 3.44 nM (6-fold). The second is the more potent here.

Compared with `Cc1ccc2cnccc2c1CN[C@H]1C[C@H](Oc2ccc(C(F)(F)F)nc2)C1` [Example 2, (1r,3r)-N-((6-methylisoquinolin-5-yl)methyl)-3-((6-(trifluoromethyl)pyridin-3-yl)oxy)cyclobutan-1-amine, HCl], `Nc1cc2c(CN[C@H]3C[C@H](Oc4ccc(C(F)(F)F)nc4)C3)c(F)ccc2cn1` [Example 17, 6-fluoro-5-((((1r,3r)-3-((6-(trifluoromethyl)pyridin-3-yl)oxy)cyclobutyl)amino)methyl)isoquinolin-3-amine, HCl] is 5.5-fold lower in IC50: 711 nM for the first, 130 nM for the second. The second is the more potent here.

Going from `Nc1ccc(CN[C@H]2C[C@H](Oc3ccc(F)c(C(F)(F)F)c3)C2)c2ccncc12` [Example 5, 5-((((1r,3r)-3-(4-fluoro-3-(trifluoromethyl)phenoxy)cyclobutyl)amino)methyl)isoquinolin-8-amine, HCl] to `Fc1ccc(O[C@H]2C[C@H](NCc3cccc4cnccc34)C2)cc1C(F)(F)F` [Example 22, (1r,3r)-3-(4-fluoro-3-(trifluoromethyl)phenoxy)-N-(isoquinolin-5-ylmethyl)cyclobutan-1-amine, HCl], the IC50 rises from 259 nM to 436 nM (1.7-fold). The first is the more potent here.

Compared with `OCc1cc(F)c(CN[C@H]2C[C@H](Oc3ccc(F)c(C(F)(F)F)c3)C2)c2ccncc12` [Example 6, (6-fluoro-5-((((1r,3r)-3-(4-fluoro-3-(trifluoromethyl)phenoxy)cyclobutyl)amino)methyl)isoquinolin-8-yl)methanol, HCl], `OCCc1cc(F)c(CN[C@H]2C[C@H](Oc3ccc(F)c(C(F)(F)F)c3)C2)c2ccncc12` [Example 10, 2-(6-fluoro-5-((((1r,3r)-3-(4-fluoro-3-(trifluoromethyl)phenoxy)cyclobutyl)amino)methyl)isoquinolin-8-yl)ethan-1-ol, HCl] is 23-fold higher in IC50: 7.25 nM for the first, 166 nM for the second. The first is the more potent here.

Compared with `CC(O)c1cc(F)c(CN[C@H]2C[C@H](Oc3ccc(F)c(C(F)(F)F)c3)C2)c2ccncc12` (some centres unmarked) [Example 8, 1-(6-fluoro-5-((((1r,3r)-3-(4-fluoro-3-(trifluoromethyl)phenoxy)cyclobutyl)amino)methyl)isoquinolin-8-yl)ethan-1-ol, HCl], `Nc1cc(F)c(CN[C@H]2C[C@H](Oc3ccc(F)c(C(F)(F)F)c3)C2)c2ccncc12` [Example 12, 6-fluoro-5-((((1r,3r)-3-(4-fluoro-3-(trifluoromethyl)phenoxy)cyclobutyl)amino)methyl)isoquinolin-8-amine] is 2.9-fold lower in IC50: 165 nM for the first, 57.8 nM for the second.

First: OC(CC(F)(F)F)c1cc(F)c(CN[C@H]2C[C@H](Oc3ccc(F)c(C(F)(F)F)c3)C2)c2ccncc12 (some centres unmarked) [Example 11, 3,3,3-trifluoro-1-(6-fluoro-5-((((1r,3r)-3-(4-fluoro-3-(trifluoromethyl)phenoxy)cyclobutyl)amino)methyl)isoquinolin-8-yl)propan-1-ol]
Second: Nc1cc2c(CN[C@H]3C[C@H](Oc4ccc(F)c(C(F)(F)F)c4)C3)c(F)cc(CO)c2cn1 [Example 18, (3-amino-6-fluoro-5-((((1r,3r)-3-(4-fluoro-3-(trifluoromethyl)phenoxy)cyclobutyl)amino)methyl)isoquinolin-8-yl)methanol, HCl]
The IC50 of the first is 240-fold higher: 395 nM for the first, 1.63 nM for the second. The second is the more potent here.

Going from `Nc1cc2c(CN[C@H]3C[C@H](Oc4ccc(F)c(C(F)(F)F)c4)C3)cccc2cn1` [Example 13, 5-((((1r,3r)-3-(4-fluoro-3-(trifluoromethyl)phenoxy)cyclobutyl)amino)methyl)isoquinolin-3-amine] to `Nc1cc2c(CN[C@H]3C[C@H](Oc4ccc(F)c(C(F)(F)F)c4)C3)c(F)ccc2cn1` [Example 14, 6-fluoro-5-((((1r,3r)-3-(4-fluoro-3-(trifluoromethyl)phenoxy)cyclobutyl)amino)methyl)isoquinolin-3-amine, HCl], the IC50 falls from 63.7 nM to 4.04 nM (16-fold). The second is the more potent here.

First: Nc1cc2c(CN[C@H]3C[C@H](Oc4ccc(F)cc4F)C3)c(F)ccc2cn1 [Example 15, 5-((((1r,3r)-3-(2,4-difluorophenoxy)cyclobutyl)amino)methyl)-6-fluoroisoquinolin-3-amine, HCl]
Second: Nc1cc2c(CN[C@H]3C[C@H](Oc4ccc(F)cc4F)C3)c(F)cc(CO)c2cn1 [Example 19, (3-amino-5-((((1r,3r)-3-(2,4-difluorophenoxy)cyclobutyl)amino)methyl)-6-fluoroisoquinolin-8-yl)methanol, HCl]
The IC50 of the first is 3.1-fold higher: 51 nM for the first, 16.2 nM for the second.

Compared with `Nc1cc2c(CN[C@H]3C[C@H](Oc4ccnc(C(F)(F)F)c4)C3)c(F)ccc2cn1` [Example 16, 6-fluoro-5-((((1r,3r)-3-((2-(trifluoromethyl)pyridin-4-yl)oxy)cyclobutyl)amino)methyl)isoquinolin-3-amine, HCl], `Nc1cc2c(CN[C@H]3C[C@H](Oc4ccnc(C(F)(F)F)c4)C3)c(F)cc(CO)c2cn1` [Example 20, (3-amino-6-fluoro-5-((((1r,3r)-3-((2-(trifluoromethyl)pyridin-4-yl)oxy)cyclobutyl)amino)methyl)isoquinolin-8-yl)methanol, HCl] is 2.8-fold higher in IC50: 31 nM for the first, 87.2 nM for the second.
